Reference: US20040266699A1, “Flavonoid compounds capable of modifying the dynamic and/or physical state of biological membranes and to stimulate the endogenous synthesis of stress proteins in eukaryotic cells, relative synthesis and their use” (priority 2001, published 2004)

Tests used:
human hsp70 promoter = assay: Luciferase reporter assay under control of human hsp70 promoter in L929 cells exposed to heat shock; format: cell-based, murine; details: 10 μM, heat shock at 40° C. and 41° C., Bimoclomol as internal positive control
Protocol: For example, L929 cells, incubated at 37° C., are stressed by heat shock at 40° or 41° C. with exposures variable from 20 min to an hour or more. After heat shock, a molecular assay that involves mRNA purification, its separation on agarose or acrylamide gels followed by hybridization with a labeled probe ([…] performed. Alternatively, the activity of luciferase used as reported gene under the control of a heat shock promoter can be used (FIG. 1). In this case, after heat shock cells are lysed in the presence of an appropriate substrate for luciferase, the activity is measured with a luminometer. […] The test utilized to assay the over expression of heat shock genes is based on a rapid enzymatic assay to determine luminescence of eukaryotic cells transfected with luciferase gene. The luciferase gene has been cloned in an eukaryotic plasmid under the control of human hsp70 gene and transfected in murine fibroblasts (L929 cell line). In such cells, a heat shock induces hsp70 promoter that activates transcription of the downstream gene (reporter gene, e.g. luciferase) whose activity is measured determining luciferase in the presence of luciferine with a luminometer. […] After lysis, luciferase activity has been determined measuring the quantity of light emitted with a luminometer. […]

[1] = Membrane fluidity (DPH fluorescence anisotropy) in artificial membranes (LUVs); details: LUVs of di-oleil-fosfatidyl-ethanolamine, di-oleil-fosfatidyl-choline, cardiolipin and fosfatidylserine; 1 DPH per 500 lipid molecules
Source text: Test to evaluate changes of MPS in artificial membranes (LUVs, Large Unilamellar Vesicles), made of di-oleil-fosfatidyl-ethanolamine, di-oleil-fosfatidyl-choline, cardiolipin and fosfatidylserine, that mimic biological membrane lipid composition. Fluidity has been measured with DPH (1,6-difenyl-1,3,5-esatriene) measuring fluorescence.
In these membranes, every 500 lipid molecules is inserted. 1 molecule of DPH This substance emits fluorescent light when it is excited with polarized light. The more a membrane is rigid the less is the capacity of the molecules to rotate freely in the membrane. Using a fluorimeter that detects the emitted fluorescence by DPH, either vertically in respect to the polarizing light or horizontally, the anisotropy of the membrane is determined and correlated to its fluidity. The more the membrane is fluid, the more DPH rotates freely and emits light in a direction different from that with which it receives the excitation. To a higher value of anisotropy corresponds a higher rigidity of the membrane, while a lower anisotropy (low fluorescence) corresponds a higher fluidity.

SMILES | heat shock response (hsp70 promoter-driven luciferase activity / inducibility of hsp70 mRNA transcription by heat shock) (human hsp70 promoter) | change of membrane physical state (fluidity) measured with DPH fluorescence [1]
Oc1ccc(C=Cc2cc(O)cc(O)c2)cc1 [#100, Resveratrol, reference compound] | inhibits the inducibility of hsp70 mRNA transcription by heat shock | –
Oc1ccc2c(c1)O[C@H](c1ccc(O)c(O)c1)[C@@H](O[C@@H]1OC[C@@H](O)[C@H](O)[C@H]1O)C2 [#11, fisetinidol-3-O-β-D-xylopyranoside] | induce a heat shock response | increases fluidity
